According to publication PMC8333425, “Discovery of a dual Ras and ARF6 inhibitor from a GPCR endocytosis screen” (Nature Communications, 2021):

What was measured:
Assay in all cases: KINOMEscan kinase binding assay
[1] = molecular target: T1, 384 kinases from the human genome (Homo sapiens, UniProt Q15569); conditions: kinase TESK1 (Entrez TESK1)
T1 construct: purchased Eurofin/DiscoverX
Procedure, shortened: (§1)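 A panel of 384 human kinases was profiled by KINOMEscan binding in the presence of 10 µM compound. Kinase–ligand binding was given as percent of DMSO control, averaged from duplicates in a single run, with an S(10) selectivity score.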

[2] = molecular target: T2, 384 kinases from the human genome (Homo sapiens, UniProt P31751); conditions: kinase AKT2 (Entrez AKT2)
T2 construct: purchased Eurofin/DiscoverX
Procedure, shortened: as §1

[3] = molecular target: T3, 384 kinases from the human genome (Homo sapiens, UniProt Q99759); conditions: kinase MAP3K3 (Entrez MAP3K3)
T3 construct: purchased Eurofin/DiscoverX
Procedure, shortened: as §1

[4] = molecular target: T4, 384 kinases from the human genome (Homo sapiens, UniProt Q8IW41); conditions: kinase MAPKAPK5 (Entrez MAPKAPK5)
T4 construct: purchased Eurofin/DiscoverX
Procedure, shortened: as §1

[5] = molecular target: T5, 384 kinases from the human genome (Homo sapiens, UniProt O60331); conditions: kinase PIP5K1C (Entrez PIP5K1C)
T5 construct: purchased Eurofin/DiscoverX
T5 sequence (O60331 whole entry): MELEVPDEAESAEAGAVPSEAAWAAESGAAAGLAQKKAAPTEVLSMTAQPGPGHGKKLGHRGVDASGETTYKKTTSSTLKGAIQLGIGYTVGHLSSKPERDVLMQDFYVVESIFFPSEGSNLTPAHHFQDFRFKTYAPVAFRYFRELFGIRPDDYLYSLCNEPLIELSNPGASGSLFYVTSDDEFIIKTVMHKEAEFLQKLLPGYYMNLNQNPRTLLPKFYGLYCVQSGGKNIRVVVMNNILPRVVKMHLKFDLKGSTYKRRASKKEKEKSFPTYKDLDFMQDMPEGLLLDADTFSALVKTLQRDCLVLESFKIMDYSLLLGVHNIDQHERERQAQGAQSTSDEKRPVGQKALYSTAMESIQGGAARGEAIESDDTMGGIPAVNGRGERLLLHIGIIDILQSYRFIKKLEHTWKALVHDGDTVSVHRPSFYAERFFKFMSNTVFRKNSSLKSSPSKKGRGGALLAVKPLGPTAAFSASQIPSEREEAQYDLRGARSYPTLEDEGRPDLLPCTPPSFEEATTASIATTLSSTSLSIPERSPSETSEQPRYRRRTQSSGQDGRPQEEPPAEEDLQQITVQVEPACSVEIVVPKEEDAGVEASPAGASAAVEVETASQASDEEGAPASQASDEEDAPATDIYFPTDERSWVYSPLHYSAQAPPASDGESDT
Procedure, shortened: as §1

[6] = molecular target: T6, 384 kinases from the human genome (Homo sapiens, UniProt Q8NI60); conditions: kinase ADCK3 (Entrez CABC1)
T6 construct: purchased Eurofin/DiscoverX
T6 sequence (Q8NI60 163-647): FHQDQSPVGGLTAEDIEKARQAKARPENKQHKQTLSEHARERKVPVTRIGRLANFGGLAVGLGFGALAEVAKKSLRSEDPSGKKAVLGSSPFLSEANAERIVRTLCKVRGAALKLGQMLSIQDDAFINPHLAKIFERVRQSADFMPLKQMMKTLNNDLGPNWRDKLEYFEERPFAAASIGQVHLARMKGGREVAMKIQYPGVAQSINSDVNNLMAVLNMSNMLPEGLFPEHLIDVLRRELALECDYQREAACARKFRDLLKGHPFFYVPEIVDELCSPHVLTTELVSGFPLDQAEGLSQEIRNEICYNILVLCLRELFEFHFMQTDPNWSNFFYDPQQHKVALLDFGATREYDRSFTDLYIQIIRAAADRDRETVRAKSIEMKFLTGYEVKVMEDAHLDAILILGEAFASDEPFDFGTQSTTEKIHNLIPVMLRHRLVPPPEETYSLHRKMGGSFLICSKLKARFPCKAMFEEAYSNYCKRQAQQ
Procedure, shortened: as §1

[7] = molecular target: T7, 384 kinases from the human genome (Homo sapiens, UniProt Q15759); conditions: kinase p38-beta (Entrez MAPK11)
T7 construct: purchased Eurofin/DiscoverX
T7 sequence (Q15759 whole entry): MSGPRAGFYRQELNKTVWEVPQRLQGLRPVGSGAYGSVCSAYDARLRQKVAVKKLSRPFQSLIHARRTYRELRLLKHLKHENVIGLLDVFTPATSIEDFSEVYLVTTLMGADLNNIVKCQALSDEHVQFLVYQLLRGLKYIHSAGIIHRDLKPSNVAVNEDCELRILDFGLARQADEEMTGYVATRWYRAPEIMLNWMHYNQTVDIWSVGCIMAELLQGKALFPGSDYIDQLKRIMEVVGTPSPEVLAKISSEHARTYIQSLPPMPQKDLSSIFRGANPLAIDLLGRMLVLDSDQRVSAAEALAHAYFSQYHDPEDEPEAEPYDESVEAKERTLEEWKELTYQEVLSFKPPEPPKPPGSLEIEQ
Procedure, shortened: as §1

[8] = molecular target: T8, 384 kinases from the human genome (Homo sapiens, UniProt Q08345); conditions: kinase DDR1 (Entrez DDR1)
T8 construct: purchased Eurofin/DiscoverX
Procedure, shortened: as §1

[9] = molecular target: T9, 384 kinases from the human genome (Homo sapiens, UniProt Q13164); conditions: kinase ERK5 (Entrez MAPK7)
T9 construct: purchased Eurofin/DiscoverX
Procedure, shortened: as §1

[10] = molecular target: T10, 384 kinases from the human genome (Homo sapiens, UniProt Q6ZN16); conditions: kinase MAP3K15 (Entrez MAP3K15)
T10 construct: purchased Eurofin/DiscoverX
T10 sequence (Q6ZN16 whole entry): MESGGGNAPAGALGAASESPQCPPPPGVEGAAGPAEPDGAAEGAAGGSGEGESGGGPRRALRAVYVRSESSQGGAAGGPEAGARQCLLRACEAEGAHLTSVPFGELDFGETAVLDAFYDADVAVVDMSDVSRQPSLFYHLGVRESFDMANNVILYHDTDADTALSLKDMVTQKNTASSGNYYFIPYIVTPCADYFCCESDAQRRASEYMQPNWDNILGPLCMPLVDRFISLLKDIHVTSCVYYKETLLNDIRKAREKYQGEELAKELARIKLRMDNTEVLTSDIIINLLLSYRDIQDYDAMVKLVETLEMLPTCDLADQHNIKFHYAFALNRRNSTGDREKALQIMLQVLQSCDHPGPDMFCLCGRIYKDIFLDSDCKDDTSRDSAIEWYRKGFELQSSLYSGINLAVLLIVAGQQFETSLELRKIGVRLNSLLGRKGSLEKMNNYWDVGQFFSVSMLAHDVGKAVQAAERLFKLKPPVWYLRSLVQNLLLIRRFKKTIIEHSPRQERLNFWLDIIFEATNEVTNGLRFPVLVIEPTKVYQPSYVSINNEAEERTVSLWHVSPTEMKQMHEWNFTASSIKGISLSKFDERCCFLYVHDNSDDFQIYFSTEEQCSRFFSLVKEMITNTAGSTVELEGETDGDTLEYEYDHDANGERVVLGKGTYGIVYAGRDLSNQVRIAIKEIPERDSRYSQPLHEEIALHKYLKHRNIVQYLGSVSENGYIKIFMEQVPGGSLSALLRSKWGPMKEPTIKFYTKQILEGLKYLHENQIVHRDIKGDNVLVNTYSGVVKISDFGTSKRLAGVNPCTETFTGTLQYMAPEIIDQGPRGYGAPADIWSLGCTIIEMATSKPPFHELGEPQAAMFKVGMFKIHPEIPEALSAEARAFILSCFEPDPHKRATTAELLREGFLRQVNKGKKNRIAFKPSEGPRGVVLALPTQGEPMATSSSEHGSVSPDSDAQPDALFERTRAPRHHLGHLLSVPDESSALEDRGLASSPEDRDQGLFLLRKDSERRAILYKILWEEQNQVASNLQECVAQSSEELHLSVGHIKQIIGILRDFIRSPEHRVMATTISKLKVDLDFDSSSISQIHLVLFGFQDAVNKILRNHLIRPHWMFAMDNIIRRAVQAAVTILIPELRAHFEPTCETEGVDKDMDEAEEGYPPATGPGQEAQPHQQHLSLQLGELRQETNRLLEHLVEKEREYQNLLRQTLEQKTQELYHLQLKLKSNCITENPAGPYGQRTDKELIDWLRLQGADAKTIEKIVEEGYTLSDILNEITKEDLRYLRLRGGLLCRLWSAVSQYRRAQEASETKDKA
Procedure, shortened: as §1

[11] = molecular target: T11, 384 kinases from the human genome (Homo sapiens, UniProt P06241); conditions: kinase FYN (Entrez FYN)
T11 construct: purchased Eurofin/DiscoverX
Procedure, shortened: as §1

[12] = molecular target: T12, 384 kinases from the human genome (Homo sapiens, UniProt Q8IVW4); conditions: kinase CDKL3 (Entrez CDKL3)
T12 construct: purchased Eurofin/DiscoverX
Procedure, shortened: as §1

[13] = molecular target: T13, 384 kinases from the human genome (Homo sapiens, UniProt Q9Y463); conditions: kinase DYRK1B (Entrez DYRK1B)
T13 construct: purchased Eurofin/DiscoverX
Procedure, shortened: as §1

[14] = molecular target: T14, 384 kinases from the human genome (Homo sapiens, UniProt P36894); conditions: kinase BMPR1A (Entrez BMPR1A)
T14 construct: purchased Eurofin/DiscoverX
T14 sequence (P36894 24-532): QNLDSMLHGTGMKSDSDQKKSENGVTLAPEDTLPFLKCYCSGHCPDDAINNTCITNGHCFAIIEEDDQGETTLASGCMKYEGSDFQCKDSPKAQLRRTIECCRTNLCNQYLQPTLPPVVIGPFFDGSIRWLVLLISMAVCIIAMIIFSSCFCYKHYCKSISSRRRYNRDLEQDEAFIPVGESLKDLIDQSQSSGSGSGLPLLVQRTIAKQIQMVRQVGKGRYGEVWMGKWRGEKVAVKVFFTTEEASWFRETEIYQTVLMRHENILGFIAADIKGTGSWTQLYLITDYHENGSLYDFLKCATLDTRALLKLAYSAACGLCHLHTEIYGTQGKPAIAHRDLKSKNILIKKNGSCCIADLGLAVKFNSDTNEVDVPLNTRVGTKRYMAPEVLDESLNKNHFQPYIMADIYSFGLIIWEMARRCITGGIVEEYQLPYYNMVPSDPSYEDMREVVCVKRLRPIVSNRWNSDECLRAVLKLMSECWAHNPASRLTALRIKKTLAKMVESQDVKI
Procedure, shortened: as §1

[15] = molecular target: T15, 384 kinases from the human genome (Homo sapiens, UniProt Q86V86); conditions: kinase PIM3 (Entrez PIM3)
T15 construct: purchased Eurofin/DiscoverX
Procedure, shortened: as §1

[16] = molecular target: T16, 384 kinases from the human genome (Homo sapiens, UniProt P27037); conditions: kinase ACVR2A (Entrez ACVR2A)
T16 construct: purchased Eurofin/DiscoverX
Procedure, shortened: as §1

[17] = molecular target: T17, 384 kinases from the human genome (Homo sapiens, UniProt Q9HBY8); conditions: kinase SGK2 (Entrez SGK2)
T17 construct: purchased Eurofin/DiscoverX
T17 sequence (Q9HBY8 whole entry): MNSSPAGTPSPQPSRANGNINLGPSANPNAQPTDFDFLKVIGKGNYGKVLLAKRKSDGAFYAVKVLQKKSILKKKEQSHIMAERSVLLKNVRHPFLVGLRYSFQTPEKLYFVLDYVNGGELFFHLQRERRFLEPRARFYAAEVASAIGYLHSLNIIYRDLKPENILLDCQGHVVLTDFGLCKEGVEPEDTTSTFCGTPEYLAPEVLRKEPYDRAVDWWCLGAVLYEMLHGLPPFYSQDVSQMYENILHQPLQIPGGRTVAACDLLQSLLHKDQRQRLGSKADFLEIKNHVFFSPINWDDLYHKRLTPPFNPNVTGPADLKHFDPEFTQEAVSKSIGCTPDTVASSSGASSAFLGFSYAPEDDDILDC
Procedure, shortened: as §1

[18] = molecular target: T18, 384 kinases from the human genome (Homo sapiens, UniProt P23443); conditions: kinase S6K1 (Entrez RPS6KB1)
T18 construct: purchased Eurofin/DiscoverX
Procedure, shortened: as §1

[19] = molecular target: T19, 384 kinases from the human genome (Homo sapiens, UniProt Q9H4A3); conditions: kinase WNK1 (Entrez WNK1)
T19 construct: purchased Eurofin/DiscoverX
Procedure, shortened: as §1

[20] = molecular target: T20, 384 kinases from the human genome (Homo sapiens, UniProt Q8N752); conditions: kinase CSNK1A1L (Entrez CSNK1A1L)
T20 construct: purchased Eurofin/DiscoverX
Procedure, shortened: as §1

[21] = molecular target: T21, 384 kinases from the human genome (Homo sapiens, UniProt P37173); conditions: kinase TGFBR2 (Entrez TGFBR2)
T21 construct: purchased Eurofin/DiscoverX
Procedure, shortened: as §1

[22] = molecular target: T22, 384 kinases from the human genome (Homo sapiens, UniProt Q9BRS2); conditions: kinase RIOK1 (Entrez RIOK1)
T22 construct: purchased Eurofin/DiscoverX
T22 sequence (Q9BRS2 whole entry): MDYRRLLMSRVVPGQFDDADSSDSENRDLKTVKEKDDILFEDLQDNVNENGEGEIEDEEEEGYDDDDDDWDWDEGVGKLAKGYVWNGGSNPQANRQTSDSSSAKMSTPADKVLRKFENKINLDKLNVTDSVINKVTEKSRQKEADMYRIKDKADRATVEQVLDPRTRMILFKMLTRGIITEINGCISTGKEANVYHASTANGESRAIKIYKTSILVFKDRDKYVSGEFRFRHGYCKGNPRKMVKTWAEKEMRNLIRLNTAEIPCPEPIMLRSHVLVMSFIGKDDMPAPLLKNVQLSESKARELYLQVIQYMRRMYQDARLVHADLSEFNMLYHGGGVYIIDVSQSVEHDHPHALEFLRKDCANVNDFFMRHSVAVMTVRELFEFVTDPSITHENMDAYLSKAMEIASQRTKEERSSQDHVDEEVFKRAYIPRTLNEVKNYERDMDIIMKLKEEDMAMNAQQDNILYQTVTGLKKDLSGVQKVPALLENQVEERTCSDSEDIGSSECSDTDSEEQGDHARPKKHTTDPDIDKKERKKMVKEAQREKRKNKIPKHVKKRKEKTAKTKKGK
Procedure, shortened: as §1

[23] = molecular target: T23, 384 kinases from the human genome (Homo sapiens, UniProt Q00537); conditions: kinase PCTK2 (Entrez CDK17)
T23 construct: purchased Eurofin/DiscoverX
T23 sequence (Q00537 whole entry): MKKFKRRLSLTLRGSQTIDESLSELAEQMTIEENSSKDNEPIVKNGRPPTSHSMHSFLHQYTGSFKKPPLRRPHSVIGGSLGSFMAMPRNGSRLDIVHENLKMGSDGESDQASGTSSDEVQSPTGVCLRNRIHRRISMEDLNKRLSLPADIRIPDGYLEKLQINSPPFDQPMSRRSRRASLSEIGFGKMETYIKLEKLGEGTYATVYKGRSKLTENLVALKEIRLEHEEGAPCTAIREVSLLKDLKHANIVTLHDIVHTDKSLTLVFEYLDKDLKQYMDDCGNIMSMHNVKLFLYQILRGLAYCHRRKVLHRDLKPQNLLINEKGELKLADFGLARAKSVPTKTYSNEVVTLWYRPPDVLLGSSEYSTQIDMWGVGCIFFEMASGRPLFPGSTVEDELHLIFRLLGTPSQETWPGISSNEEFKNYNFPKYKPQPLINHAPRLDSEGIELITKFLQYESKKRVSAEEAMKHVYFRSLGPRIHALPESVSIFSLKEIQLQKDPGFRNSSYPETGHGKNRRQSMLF
Procedure, shortened: as §1

[24] = molecular target: T24, 384 kinases from the human genome (Homo sapiens, UniProt Q96Q40); conditions: kinase PFTAIRE2 (Entrez CDK15)
T24 construct: purchased Eurofin/DiscoverX
Procedure, shortened: as §1

[25] = molecular target: T25, 384 kinases from the human genome (Homo sapiens, UniProt Q02156); conditions: kinase PRKCE (Entrez PRKCE)
T25 construct: purchased Eurofin/DiscoverX
Procedure, shortened: as §1

[26] = molecular target: T26, 384 kinases from the human genome (Homo sapiens, UniProt Q9UL54); conditions: kinase TAOK2 (Entrez TAOK2)
T26 construct: purchased Eurofin/DiscoverX
Procedure, shortened: as §1

SMILES: CC(C)C(=O)N1CCN(c2ccc(NC(=O)c3cc4ccccc4o3)cc2Cl)CC1 [Compound 21]
- Percent Control [1]: 82%
- Percent Control [2]: 100%
- Percent Control [3]: 75%
- Percent Control [4]: 98%
- Percent Control [5]: 100%
- Percent Control [6]: 64%
- Percent Control [7]: 80%
- Percent Control [8]: 90%
- Percent Control [9]: 99%
- Percent Control [10]: 100%
- Percent Control [11]: 67%
- Percent Control [12]: 100%
- Percent Control [13]: 79%
- Percent Control [14]: 79%
- Percent Control [15]: 90%
- Percent Control [16]: 100%
- Percent Control [17]: 100%
- Percent Control [18]: 94%
- Percent Control [19]: 94%
- Percent Control [20]: 98%
- Percent Control [21]: 99%
- Percent Control [22]: 100%
- Percent Control [23]: 99%
- Percent Control [24]: 100%
- Percent Control [25]: 99%
- Percent Control [26]: 93%
